Laboratory results as given in paper PMC9401600 (Chemmedchem, 2022).

Legend:
C. elegans strain CL2006 = assay: Locomotion assay (motor index); format: in vivo, Caenorhabditis elegans; conditions: CL2006 worms, 0.001-1 μM, chronic treatment, compared with UNC0638
Protocol: One of the best‐characterized transgenic AD strains in C. elegans is the CL2006 strain, which contains the Punc‐54::Aβ1–42 transgene, showing a progressive adult‐onset paralysis. Then, to establish a dose‐response profile, the pharmacological impact of G9a inhibition was evaluated in a locomotion assay with this C. elegans strain. We performed a motility assay where animals were placed in the center of a seeded plate and allowed to explore the environment freely. […] N2 (WT), and CL2006 strain were treated with dimethyl sulfoxide (DMSO) 1 %, used as a vehicle, which should not cause a relevant locomotor defective phenotype. […] The motor index for each condition was calculated using the motor performance of Bristol (N2) (WT, 100 %) and the transgenic AD strain (CL2006, 0 %) animals as reference.
Locomotion assay of G9a inhibitors was assessed to obtain dose‐response profile, evaluating the impact of the pharmacology treatment in motor dysfunction presented by the transgenic strains CL2006. Nematodes were synchronized by alkaline hypochlorite treatment, and drug assay was performed as described above, except for the OP50 bacteria OD595 adjusted to 0.9, and the duration of the treatment was 5 days. N2 (WT), and the transgenic strain CL2006 were treated in liquid media for 4 days at 20 °C and 180 rpm, starting at the L1 stage. On day 5 of age, worms were transferred from the 96‐well plates onto an unseeded NGM plate for 45 minutes before starting the trial, allowing the plates to dry and worms. Locomotion assays were performed in 30 mm NGM plates, in which the whole surface of the plate was covered by OP50. 5 to 10 adult nematodes were placed in the center of a circle (with 1 cm of diameter) in the seeded 30 mm NGM plates. After 1 min, the number of animals remaining inside the circle was scored as a locomotor defect. Motor behavior assays were run in triplicates (n=3), with a total of at least 100 animals tested per compound concentration. Motor index establishes a score where treated animals showing the same motor defect as CL2006 have an index of 0 %. […] All the results shown in the figures are calculated using the following formula: Motorindex(%)=(LDCL2006vehicle-LDCL2006drug)/(LDCL2006vehicle-LDWTvehicle)×100 LD=locomotiondefective

PAMPA‐BBB assay = format: in vitro ADME; conditions: for predictive penetration in the CNS: PAMPA‐BBB classification; for Papp: pig, PAMPA‐BBB, PBS:EtOH (70 : 30), read-out: Permeability (Pe) experimental value
Protocol: To evaluate the brain penetration of the different compounds, a parallel artificial membrane permeation assay for BBB was used, following the method described by Di et al..[33] The in vitro Pe of fourteen commercial drugs through lipid extract of porcine brain membrane together with the test compounds were determined. Commercial drugs and assayed compounds were tested using a mixture of PBS:EtOH (70 : 30).

EHMT1 (GLP) = molecular target: T1, EHMT1 (GLP) (Homo sapiens, UniProt Q9H9B1); assay: EHMT1 (GLP) chemiluminescent assay; format: biochemical; conditions: 0.01 μM to 10 μM
T1 construct: purchased
T1 sequence (Q9H9B1 1-1298): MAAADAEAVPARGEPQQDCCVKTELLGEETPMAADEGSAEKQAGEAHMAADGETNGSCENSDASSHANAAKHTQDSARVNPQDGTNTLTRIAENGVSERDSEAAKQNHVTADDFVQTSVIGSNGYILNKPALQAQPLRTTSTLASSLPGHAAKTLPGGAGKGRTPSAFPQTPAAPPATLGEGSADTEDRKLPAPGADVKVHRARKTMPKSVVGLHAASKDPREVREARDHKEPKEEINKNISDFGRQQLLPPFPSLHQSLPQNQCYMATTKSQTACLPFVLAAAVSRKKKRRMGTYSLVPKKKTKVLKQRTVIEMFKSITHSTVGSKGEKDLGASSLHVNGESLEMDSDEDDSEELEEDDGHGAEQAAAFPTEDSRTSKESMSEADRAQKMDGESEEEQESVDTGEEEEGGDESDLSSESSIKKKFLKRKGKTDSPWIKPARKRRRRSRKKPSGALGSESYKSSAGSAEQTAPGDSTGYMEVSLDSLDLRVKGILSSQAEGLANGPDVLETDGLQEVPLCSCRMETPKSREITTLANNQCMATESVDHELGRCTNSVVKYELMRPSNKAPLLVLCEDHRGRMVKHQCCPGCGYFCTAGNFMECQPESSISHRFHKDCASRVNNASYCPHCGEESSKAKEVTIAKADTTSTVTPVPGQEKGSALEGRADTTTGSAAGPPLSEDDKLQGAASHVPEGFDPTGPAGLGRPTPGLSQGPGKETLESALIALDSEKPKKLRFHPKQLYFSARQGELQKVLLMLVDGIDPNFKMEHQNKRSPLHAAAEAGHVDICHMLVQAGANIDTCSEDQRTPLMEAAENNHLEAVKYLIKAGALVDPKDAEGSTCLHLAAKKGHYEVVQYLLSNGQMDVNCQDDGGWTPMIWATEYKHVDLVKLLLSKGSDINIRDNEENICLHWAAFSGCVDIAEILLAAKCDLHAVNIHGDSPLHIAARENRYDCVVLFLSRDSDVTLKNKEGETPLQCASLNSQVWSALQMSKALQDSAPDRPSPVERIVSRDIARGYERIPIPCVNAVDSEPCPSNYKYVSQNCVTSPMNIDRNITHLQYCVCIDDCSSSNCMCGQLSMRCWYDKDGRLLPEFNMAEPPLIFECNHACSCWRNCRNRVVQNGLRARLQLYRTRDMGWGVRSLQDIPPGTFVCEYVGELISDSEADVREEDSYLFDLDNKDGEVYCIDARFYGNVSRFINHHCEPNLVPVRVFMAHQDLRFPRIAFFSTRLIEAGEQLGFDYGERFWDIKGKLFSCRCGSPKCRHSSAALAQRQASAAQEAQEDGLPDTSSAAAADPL
Protocol: Last, but not least, further characterization of the best candidates was performed assessing their selectivity. Thus, we tested them against EHMT1 (G9a‐like protein, GLP). […] However, they presented a very low percentage, and furthermore this trend was not observed at high doses.
The assay was carried out using EHMT1 (GLP) Chemiluminescent Assay kit. Compounds were added on a 96‐well plate precoated with histone substrate supplied by kit. 30 μL of master mixture SAM were added and the reaction was initiated adding 20 μL of diluted EHMT1 (GLP) enzyme. The reaction was incubated at room temperature (RT) for 1 hour. The plate was washed three times with 200 μl TBST buffer. 100 μL of Blocking buffer were added to every well and the plate was incubated at RT for 10 minutes with shaking. Supernatant was removed and 100 μl of Primary antibody were added per well. The plate was incubated at RT for 1 hour with slow shaking. The plate was washed three times with 200 μl TBST buffer. 100 μL of Blocking buffer were added to every well and the plate was incubated at RT for 10 minutes with shaking. 100 μl of Secondary HRP‐labeled antibody were added per well and the plate was incubated at RT for 30 minutes with slow shaking. The plate was washed three times with 200 μl TBST buffer. Finally, 100 μl of substrate mix were added and the luminescence was measurement with integration time of 1 second in Perkin Elmer EnSpire Multimode plate reader.

SMILES | motor index dose‐response profile (in words) (C. elegans strain CL2006) | predictive penetration in the CNS (PAMPA‐BBB assay) | Papp (PAMPA‐BBB assay) | activity against EHMT1 (in words) (EHMT1 (GLP))
Cc1cc(N2CCN(Cc3cc(CN4CCCC4)cs3)CC2)nc(N)n1 [E] | ameliorating the paralysis presented by CL2006 | CNS+/‐ | 2.2 ± 0.1 ×10⁻⁶ cm/s | did not inhibit EHMT1
CCN1C[C@H](NC(=O)c2cc3cc(Cl)ccc3[nH]2)[C@@H](OC)C1 [F, 5‐chloro‐N‐((3S,4S)‐1‐ethyl‐4‐methoxypyrrolidin‐3‐yl)‐1H‐indole‐2‐carboxamide] | ameliorating the paralysis presented by CL2006 | CNS+ (compounds of high BBB permeation (CNS+): Pe (10^−6 cm ⋅ s^−1) >5.14) | 10.9 ± 0.4 ×10⁻⁶ cm/s | slight activity against EHMT1 at low doses
Cc1cc(CNC(=O)C(c2ccc(F)cc2)N2CCCCC2)cnc1C (stereo not drawn) [H] | ameliorating the paralysis presented by CL2006 | CNS+ (compounds of high BBB permeation (CNS+): Pe (10^−6 cm ⋅ s^−1) >5.14) | 17.4 ± 2.4 ×10⁻⁶ cm/s | slight activity against EHMT1 at low doses
